Experimental data: paper PMC10906037, “Highly Enantioselective Catalysis by Enzyme Encapsulated in Metal Azolate Frameworks with Micelle-Controlled Pore Sizes” (ACS Central Science, 2024)

Target: T1, lipase CAL-B (Moesziomyces antarcticus, UniProt P41365)
T1 sequence (P41365 26-342): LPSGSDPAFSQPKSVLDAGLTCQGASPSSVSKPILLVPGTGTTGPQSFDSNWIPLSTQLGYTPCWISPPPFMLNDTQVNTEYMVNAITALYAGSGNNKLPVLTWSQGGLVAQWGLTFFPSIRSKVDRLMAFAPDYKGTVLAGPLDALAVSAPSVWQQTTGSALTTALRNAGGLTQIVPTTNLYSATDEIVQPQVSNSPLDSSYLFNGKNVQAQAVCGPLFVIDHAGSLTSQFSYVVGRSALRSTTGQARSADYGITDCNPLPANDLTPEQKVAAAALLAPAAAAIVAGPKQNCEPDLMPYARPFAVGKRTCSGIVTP
Experiment: kinetic resolution, yield
Format: biochemical
Details: free CAL-B; substrate not given

CC(=O)O[C@H](C)c1cccc2ccccc12 [compound 8, product 8]
kinetic resolution, yield: it resulted in a notably lower yield in comparison to free CAL-B
